Laboratory results from patent publication US12692274B2, “Tetrahydroisoquinoline derivatives for the treatment of red blood disorders and inflammatory diseases” (Sanofi, priority 2020, dated 2026).
“And” between values parts separate entries of the source, which are not always exact repeats. Equal values may be shown once.

Experiments:
[1] = molecular target: HIS-Keap1 full length / Biotin-Nrf2 (16-mer) (Homo sapiens, UniProt Q14145); assay: biochemical
[2] = system: NQO1 activation in BEAS-2B cells; assay: BEAS-2B cellular MTT assay of NQO1 activation, 0.3% HSA; format: cell-based
Method in brief: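 BEAS-2B cells (<70% confluent in culture, BEBM/SingleQuots without GA-1000) seeded in collagen plates with 0.3% or 0% HSA, reaching 95-100% confluency after 48 h at 37 °C, 5% CO2; MTT read-out.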

[3] = system: NQO1 activation in BEAS-2B cells; assay: BEAS-2B cellular MTT assay of NQO1 activation, 0% HSA; format: cell-based
Method in brief: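 BEAS-2B cells grown in BEBM with BEGM SingleQuots (no GA-1000), kept below 70% confluence, seeded on collagen plates at a density giving 95-100% confluence after 48 h. Plates seeded in medium without HSA (0% HSA condition).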

[4] = Homo sapiens, BEAS+ W, read-out: BEAS+ W EC50
[5] = Homo sapiens, Serum Free W, read-out: BEAS EC50 (nM) Serum Free W
[6] = Homo sapiens, BEAS+, read-out: BEAS+ EC50
[7] = Homo sapiens, serum free, read-out: BEAS EC50 (nM) serum free
[8] = serum free, read-out: BEAS EC50 (nM) serum free
[9] = BEAS+ W, read-out: BEAS+ W EC50
[10] = Serum Free W, read-out: BEAS EC50 (nM) Serum Free W

HIS-Keap1 full length / Biotin-Nrf2 (16-mer), sequence (Q14145 whole entry): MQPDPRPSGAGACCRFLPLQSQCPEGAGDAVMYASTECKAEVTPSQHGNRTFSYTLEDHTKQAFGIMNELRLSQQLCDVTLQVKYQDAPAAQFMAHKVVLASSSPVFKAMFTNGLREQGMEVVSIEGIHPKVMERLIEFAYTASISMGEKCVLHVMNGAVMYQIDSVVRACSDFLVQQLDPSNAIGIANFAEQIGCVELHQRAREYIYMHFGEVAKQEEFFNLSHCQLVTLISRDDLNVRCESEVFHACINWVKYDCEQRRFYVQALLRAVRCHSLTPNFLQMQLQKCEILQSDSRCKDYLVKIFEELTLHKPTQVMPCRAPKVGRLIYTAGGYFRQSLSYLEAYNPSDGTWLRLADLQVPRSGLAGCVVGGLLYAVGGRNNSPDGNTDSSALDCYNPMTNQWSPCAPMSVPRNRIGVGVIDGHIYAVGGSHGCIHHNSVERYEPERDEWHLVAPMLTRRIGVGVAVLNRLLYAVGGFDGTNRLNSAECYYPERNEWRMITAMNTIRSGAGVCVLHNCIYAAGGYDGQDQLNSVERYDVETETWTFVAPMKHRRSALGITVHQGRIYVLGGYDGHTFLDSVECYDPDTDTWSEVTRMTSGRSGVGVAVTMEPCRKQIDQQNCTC

| SMILES | IC50 [1] | EC50 [2, 4] | EC50 [3, 5] | EC50 ([2]; BEAS+, read-out: BEAS+ EC50) | EC50 [2, 6] | EC50 [3, 7] | EC50 [3, 8] | EC50 [2, 9] | EC50 [3, 10] |
| --- | --- | --- | --- | --- | --- | --- | --- | --- | --- |
| O=C(O)C[C@@H]1c2cnc(nc2)OCCCCCc2c(F)c(F)c(c(F)c2F)C(=O)N2CCc3ccc1cc3C2 [Compound 44] | 6.7 nM and 5.1 nM | 1560 nM | 393 nM |  |  |  |  |  |  |
| COc1cc2ccc1CCCCCn1nnc3c(C)c(cnc31)C(CC(=O)O)c1ccc3c(c1)CN(CC3)C2=O (stereo not drawn) [Compound 165] | 1.7 nM and 1.6 nM |  |  | 21.1 nM | 26 nM | 11.7 nM | 13.3 nM |  |  |
| Cc1c2ccc3c1nnn3CCCCCOc1cc(F)c(c(F)c1)C(=O)N1CCc3ccc(cc3C1)C2CC(=O)O (stereo not drawn) [Compound 314] | 4.4 nM and 1.8 nM |  |  |  | 109 nM | 2.6 nM |  |  |  |
| Cc1c2ccc3c1nnn3CCCCCCOc1ccc(cc1F)C(=O)N1CCc3ccc(cc3C1)C2CC(=O)O (stereo not drawn) [Compound 270] | 4 nM and 3.6 nM |  |  |  | 55.9 nM | 56.5 nM |  |  |  |
| Cc1cc2ncc1[C@H](CC(=O)O)c1ccc3c(c1)CN(CC3)C(=O)c1ccc(cc1)COCCCO2 [Compound 78] | 7.6 nM and 6 nM | 105 nM | 43 nM |  |  |  |  | 108 nM | 59.3 nM |
| Cc1c2ccc3c1nnn3CCCCCCOc1ccc(cn1)C(=O)N1CCc3ccc(cc3C1)C2CC(=O)O (stereo not drawn) [Compound 378] | 7.7 nM and 8 nM |  |  | 155 nM | 213 nM | 133 nM | 139 nM |  |  |
| Cc1c2ccc3c1nnn3CCCCCc1ccc(cc1F)C(=O)N1CCc3ccc(cc3C1)C2CC(=O)O (stereo not drawn) [Compound 267] | 2.4 nM and 2.3 nM |  |  |  | 5.3 nM | 3.9 nM |  |  |  |
| O=C(O)CC1c2ccc(cc2)OCCCCCOc2ccc(cc2)C(=O)N2CCc3ccc1cc3C2 (stereo not drawn) [Compound 399] | > 1000 nM and 335 nM |  |  | 2000 nM | 1980 nM | 479 nM | 407 nM |  |  |
| Cc1c2ccc3c1nnn3CCOCCCc1ccc(c(F)c1)C(=O)N1CCc3ccc(cc3C1)[C@@H]2CC(=O)O [Compound 364] | 1.7 nM and 1.6 nM | 98.8 nM | 56 nM |  |  |  |  | 92.6 nM | 68.3 nM |
| Cc1cc2ncc1[C@@H]([C@H](C)C(=O)O)c1ccc3c(c1)CN(CC3)C(=O)c1ccc(cc1)C/C=C/CCO2 [Compound 58] | 10.9 nM and 8.4 nM | 26.5 nM | 9.7 nM |  |  |  |  | 35.1 nM | 8.8 nM |
| Cc1c2ccc3c1nnn3CCCCCc1ccc(cc1)C(=O)N1CCc3ccc(cc3C1)[C@H]2[C@H](C)C(=O)O [Compound 133] | 1.4 nM and 1.3 nM | 39.4 nM | 16 nM |  |  |  |  | 38.9 nM | 31 nM |
| O=C(O)CC1c2ccc(nc2)OCCCCCOc2ccc(c(F)c2)C(=O)N2CCc3ccc1cc3C2 (stereo not drawn) [Compound 268] | 68.1 nM and 70.7 nM |  |  |  | 561 nM | 505 nM |  |  |  |
| Cc1c2ccc3c1nnn3CCCCCCc1ccc(c(F)c1)C(=O)N1CCc3ccc(cc3C1)C2CC(=O)O (stereo not drawn) [Compound 272] | 1.1 nM and 1.3 nM |  |  |  | 3.3 nM | 2.5 nM |  |  |  |
| Cc1cc2ccc1C(=O)N1CCc3ccc(cc3C1)[C@@H](CC(=O)O)c1ccc3c(nnn3CCC/C=C/C2)c1C [Compound 392] | 0.5 nM |  |  | 15.5 nM | 13.7 nM | 10.6 nM | 10.3 nM |  |  |
| O=C(O)CC1c2cnc(nc2)OCCCCOc2ccc(cc2)C(=O)N2CCc3ccc1cc3C2 (stereo not drawn) [Compound 183] | 642 nM and 571 nM | > 10000 nM | > 1000 nM |  |  |  |  |  |  |
| Cc1c2ccc3c1nnn3CCCCCCc1ccc(cc1)C(=O)N1CCc3ccc(cc3C1)[C@H]2CC(=O)O [Compound 202] | 7.2 nM and 6.8 nM and 7.1 nM |  |  | 298 nM and 338 nM | 200 nM | 58.2 nM | 55.5 nM and 69.1 nM |  |  |
| O=C(O)CC1c2ccc(nc2)OCCCCCCOc2ccc(cc2)C(=O)N2CCc3ccc1cc3C2 (stereo not drawn) [Compound 319] | 99 nM and 106 nM |  |  |  | 1430 nM | 432 nM |  |  |  |
| Cc1c2cnc3c1nnn3CCCCCCOc1ccc(c(F)c1)C(=O)N1CCc3ccc(cc3C1)C2CC(=O)O (stereo not drawn) [Compound 222] | 1.6 nM and 1.5 nM |  |  | 38.6 nM | 47.4 nM | 17.2 nM | 14.2 nM |  |  |
| Cc1c2cnc3c1nnn3CCCCCc1ccc(cc1)C(=O)N1CCc3ccc(cc3C1)[C@@H]2CC(=O)O [Compound 124] | 0.6 nM | 9 nM | 7.6 nM |  |  |  |  | 12.5 nM | 7.3 nM |
| C[C@@H](C(=O)O)[C@H]1c2ccc3c(c2)CN(CC3)C(=O)c2c(F)cc(cc2F)OCCCCCCn2nnc3cc1ccc32 [Compound 258] | 4.9 nM |  |  | 2530 nM | 2640 nM | 9080 nM | 9480 nM |  |  |
